Test results: patent publication US20090221656A1, “Drug Combinations” (priority 2006, published 2009)

Experiments:
[1] = NA and DA tissue levels in heart and brain after administration of Compound 1; assay type: in vivo, mice and rats; conditions: mouse and rat, in vivo; mice and rats; after administration
Source text: (§1) Compound 1 ((R)-5-(2-aminoethyl)-1-(6,8-difluorochroman-3-yl)-1,3-dihydroimidazole-2-thione hydrochloride) is a new chemical entity that integrates a series of potent inhibitors of dopamine β-hydroxylase (DBH) that were designed and synthesised incorporating modifications to the core structure of nepicastat. The aim was to provide new DBH inhibitors exerting minimal effects on dopamine (DA) and noradrenaline (NA) levels in the brain. Compound 1 is in a fact a potent and peripherally-selective DBH inhibitor. […] Compound 1 is thus presented as a candidate for clinical evaluation for the treatment of chronic heart failure and hypertension. Compound 1, together with a series of related compounds, is described in WO 2004/033447.

[2] = tested on: dopamine β-hydroxylase (DBH); experiment: as above; assay type: in vivo, mice and rats
Source text: as §1

[3] = mice and rats, at Tmax (9 h after administration)

Tmax [1]: 9 h
SMILES: Cl.NCCc1c[nH]c(=S)n1[C@H]1COc2c(F)cc(F)cc2C1 [Compound 1, (R)-5-(2-aminoethyl)-1-(6,8-difluorochroman-3-yl)-1,3-dihydroimidazole-2-thione hydrochloride]
DA tissue levels in brain ([2]; brain): failed to affect | NA tissue levels in brain ([2]; brain): failed to affect | NA levels in the left atrium [2, 3]: reduced NA levels in a dose-dependent manner | NA levels in the left ventricle [2, 3]: reduced NA levels in a dose-dependent manner | dose at which the maximal inhibitory effect on NA levels was attained ([2]; mice and rats, left atrium and left ventricle, 9 h after administration): 100 mg/kg
